According to US20220056037A1 (SPV THERAPEUTICS INC., priority 2018, published 2022):

Experiments:
Assay in all cases: 2D cell proliferation assay (CellTiter-Blue)
Type in all cases: cell-based
GXA MKN45 = conditions: Homo sapiens, MKN-45, 72 h; cell line GXA MKN45; three days of treatment; read-out: IC (abs. IC50)
Protocol: (§1) Viability of the cells was analyzed by using the CellTiter-Blue® Cell Viability Assay (Promega), and was performed according to manufacturer's instructions. Briefly, cells were harvested from exponential phase cultures (Chapter 6.6), counted and plated in 96-well flat-bottom microtiter plates at a cell density of 4,000-60,000 cells/well in a volume of 140 μl per well. After a 24 hours recovery period, 10 μL cell culture medium (six control wells/plate) or culture medium with test compound were added (Chapter 6.2). The compounds were applied at five concentrations in full-log increments up to 100 μM in duplicate. Cultures were incubated at 37° C. and 5% CO2 in a humidified atmosphere for another three days. After three days of treatment, 20 μl/well CellTiter-Blue® reagent was added. Following incubation with CellTiter-Blue® reagent for up to four hours, fluorescence (FU) was measured by using the Enspire Multimode Plate Reader (excitation λ=570 nm, emission λ=600 nm). For calculations, the mean values of duplicate/sextuplicate (untreated control) data were used.
(§2) Drug effects were expressed in terms of the percentage of the fluorescence signal, obtained by comparison of the mean signal in the treated wells with the mean signal of the untreated controls (expressed by the test-versus-control value, T/C-value [%]):
(§3) IC values are reported as relative IC50 values and absolute IC50 and IC70 values. […] The absolute IC70 value gives the concentration of the test compound that achieves T/C=30%. The relative IC50 value is the concentration of test compound that gives a response half way between the top and bottom plateau of the sigmoidal concentration-response curve (inflection point of the curve). Calculation was done by 4parameter non-linear curve fit (Oncotest Data Warehouse Software).
(§4) If an IC50 or IC70 value could not be determined within the examined dose range (because a compound was either too active or lacked activity), the lowest or highest concentration studied was used for calculation of the geometric mean value.
(§5) The overall potency of a compound was determined by the geometric mean IC50/IC70 values of all individual IC50/IC70 values. In the heatmap representation of IC50 and IC70 values, the distribution of the IC50 or IC70 values obtained for a test compound in the individual cell lines is given in relation to the geometric mean […] or IC70 value, obtained over all PDX models tested. The individual IC values range from 1/32-fold geometric mean IC (corresponding to very potent compound activity or high tumor sensitivity) to 32-fold geometric mean IC (corresponding to lack of compound activity or tumor resistance). The heatmap presentation, therefore, represents an antiproliferative “fingerprint” profile of a test compound.

LEXFCM K-562 = conditions: Homo sapiens, K562, 72 h; cell line LEXFCM K-562; three days of treatment; read-out: IC (abs. IC50)
Protocol: as §1, §2, §3, §4, §5

LIXAH HLE = conditions: 72 h; cell line LIXAH HLE; three days of treatment; read-out: IC (abs. IC50)
Protocol: as §1, §2, §3, §4, §5

LIXAH SNU-398 = conditions: Homo sapiens, 72 h; cell line LIXAH SNU-398; three days of treatment; read-out: IC (abs. IC50)
Protocol: as §1, §2, §3, §4, §5

LXFA A549 = conditions: Homo sapiens, 72 h; cell line LXFA A549; three days of treatment; read-out: IC (abs. IC50)
Protocol: as §1, §2, §3, §4, §5

LXFE Calu-1 = conditions: Homo sapiens, 72 h; cell line LXFE Calu-1; three days of treatment; read-out: IC (abs. IC50)
Protocol: as §1, §2, §3, §4, §5

LYXFNH Daudi = conditions: Homo sapiens, 72 h; cell line LYXFNH Daudi; three days of treatment; read-out: IC (abs. IC50)
Protocol: as §1, §2, §3, §4, §5

LYXFNH U-937 = conditions: Homo sapiens, 72 h; cell line LYXFNH U-937; three days of treatment; read-out: IC (abs. IC50)
Protocol: as §1, §2, §3, §4, §5

MAXFLB 147D (ER +) = conditions: 72 h; cell line MAXFLB 147D (ER +); three days of treatment; read-out: IC (abs. IC50)
Protocol: as §1, §2, §3, §4, §5

MAXFTN BT-549 = conditions: Homo sapiens, 72 h; cell line MAXFTN BT-549; three days of treatment; read-out: IC (abs. IC50)
Protocol: as §1, §2, §3, §4, §5

MAXFTN MDA-MB-468 (ER −) = conditions: Homo sapiens, 72 h; cell line MAXFTN MDA-MB-468 (ER −); three days of treatment; read-out: IC (abs. IC50)
Protocol: as §1, §2, §3, §4, §5

MEXF A-375 = conditions: Homo sapiens, 72 h; cell line MEXF A-375; three days of treatment; read-out: IC (abs. IC50)
Protocol: as §1, §2, §3, §4, §5

MEXF A2058 = conditions: Homo sapiens, 72 h; cell line MEXF A2058; three days of treatment; read-out: IC (abs. IC50)
Protocol: as §1, §2, §3, §4, §5

PAXF MIA-Pa-Ca-2 = conditions: Homo sapiens, MIA PaCa-2, 72 h; cell line PAXF MIA-Pa-Ca-2; three days of treatment; read-out: IC (abs. IC50)
Protocol: as §1, §2, §3, §4, §5

PRXF 22Rv1 = conditions: Homo sapiens, 72 h; cell line PRXF 22Rv1; three days of treatment; read-out: IC (abs. IC50)
Protocol: as §1, §2, §3, §4, §5

PRXF DU-145 = conditions: Homo sapiens, 72 h; cell line PRXF DU-145; three days of treatment; read-out: IC (abs. IC50)
Protocol: as §1, §2, §3, §4, §5

PRXF VCap = conditions: Homo sapiens, 72 h; cell line PRXF VCap; three days of treatment; read-out: IC (abs. IC50)
Protocol: as §1, §2, §3, §4, §5

UXF EFE-184 = conditions: Homo sapiens, 72 h; cell line UXF EFE-184; three days of treatment; read-out: IC (abs. IC50)
Protocol: as §1, §2, §3, §4, §5

Compound CN1CCN(c2ccc(Nc3ncc4cc(C(=O)N(C)C)n(C56CC(C5)C6)c4n3)cc2)CC1 [SPV113] has an IC50 (GXA MKN45) of 1080 nM, an IC50 (LEXFCM K-562) of 1150 nM and an IC50 (LIXAH HLE) of 229 nM. For the same compound, the IC50 (LIXAH SNU-398) was 148 nM, the IC50 (LXFA A549) was 1230 nM and the IC50 (LXFE Calu-1) was 1560 nM. The IC50 (LYXFNH Daudi) was ≤ 10 nM, the IC50 (LYXFNH U-937) was ≤ 10 nM and the IC50 (MAXFLB 147D (ER +)) was 3470 nM. It also gave an IC50 (MAXFTN BT-549) of 713 nM, an IC50 (MAXFTN MDA-MB-468 (ER −)) of 290 nM and an IC50 (MEXF A-375) of 101 nM. The IC50 (MEXF A2058) was 1510 nM, the IC50 (PAXF MIA-Pa-Ca-2) was 105 nM and the IC50 (PRXF 22Rv1) was ≤ 10 nM. The IC50 (PRXF DU-145) was 253 nM, the IC50 (PRXF VCap) was 15 nM and the IC50 (UXF EFE-184) was 906 nM.
